According to the kinase profiling compilation of Christmann-Franck et al. (2016):

Tests used:
Assay in all cases: radiometric filter-binding kinase assay, Kinase HotSpot
Conditions in all cases: compound 0.5 µM; ATP 10 µM
ROCK1 (human) = ROCK1 (human) (UniProt Q13464)
LCK (human) = LCK (human) (UniProt P06239)
CAMK2B (human) = CAMK2B (human) (UniProt Q13554)
MAPKAPK2 (human) = MAPKAPK2 (human) (UniProt P49137)
[1] = molecular target: JAK1 JH1 catalytic (human) (UniProt P23458)
ERBB2 (human) = ERBB2 (human) (UniProt P04626)
TXK (human) = TXK (human) (UniProt P42681)
EPHB4 (human) = EPHB4 (human) (UniProt P54760)
ACVR1B (human) = ACVR1B (human) (UniProt P36896)
PDGFRB (human) = PDGFRB (human) (UniProt P09619)
CSNK2A1 (human) = CSNK2A1 (human) (UniProt P68400)
EGFR (human) = EGFR (human) (UniProt P00533)
LIMK1 (human) = LIMK1 (human) (UniProt P53667)
EPHA5 (human) = EPHA5 (human) (UniProt P54756)
AURKA (human) = AURKA (human) (UniProt O14965)
FRK (human) = FRK (human) (UniProt P42685)
ABL1 (human) = ABL1 (human) (UniProt P00519)
KIT (human) = KIT (human) (UniProt P10721)
MAPK14 (human) = MAPK14 (human) (UniProt Q16539)
AURKC (human) = AURKC (human) (UniProt Q9UQB9)
CLK1 (human) = CLK1 (human) (UniProt P49759)
TTK (human) = TTK (human) (UniProt P33981)
RET (human) = RET (human) (UniProt P07949)
JAK2 JH1 JH2 (human) = JAK2 JH1 JH2 (human) (UniProt O60674)
DAPK2 (human) = DAPK2 (human) (UniProt Q9UIK4)
SRPK1 (human) = SRPK1 (human) (UniProt Q96SB4)
NEK2 (human) = NEK2 (human) (UniProt P51955)
MKNK2 (human) = MKNK2 (human) (UniProt Q9HBH9)
DYRK1A (human) = DYRK1A (human) (UniProt Q13627)
EPHA4 (human) = EPHA4 (human) (UniProt P54764)
CAMK2D (human) = CAMK2D (human) (UniProt Q13557)
MAP3K14 (human) = MAP3K14 (human) (UniProt Q99558)
CDK2 CCNE1 (human) = CDK2 CCNE1 (human) (UniProt P24941+P24864)
CAMKK2 (human) = CAMKK2 (human) (UniProt Q96RR4)
CHEK1 (human) = CHEK1 (human) (UniProt O14757)
FGFR2 (human) = FGFR2 (human) (UniProt P21802)
OXSR1 (human) = OXSR1 (human) (UniProt O95747)
PAK2 (human) = PAK2 (human) (UniProt Q13177)
PLK1 (human) = PLK1 (human) (UniProt P53350)
PASK (human) = PASK (human) (UniProt Q96RG2)
MAP4K2 (human) = MAP4K2 (human) (UniProt Q12851)
AXL (human) = AXL (human) (UniProt P30530)

Sequence of SRPK1 (human) (Q96SB4 whole entry, looked up): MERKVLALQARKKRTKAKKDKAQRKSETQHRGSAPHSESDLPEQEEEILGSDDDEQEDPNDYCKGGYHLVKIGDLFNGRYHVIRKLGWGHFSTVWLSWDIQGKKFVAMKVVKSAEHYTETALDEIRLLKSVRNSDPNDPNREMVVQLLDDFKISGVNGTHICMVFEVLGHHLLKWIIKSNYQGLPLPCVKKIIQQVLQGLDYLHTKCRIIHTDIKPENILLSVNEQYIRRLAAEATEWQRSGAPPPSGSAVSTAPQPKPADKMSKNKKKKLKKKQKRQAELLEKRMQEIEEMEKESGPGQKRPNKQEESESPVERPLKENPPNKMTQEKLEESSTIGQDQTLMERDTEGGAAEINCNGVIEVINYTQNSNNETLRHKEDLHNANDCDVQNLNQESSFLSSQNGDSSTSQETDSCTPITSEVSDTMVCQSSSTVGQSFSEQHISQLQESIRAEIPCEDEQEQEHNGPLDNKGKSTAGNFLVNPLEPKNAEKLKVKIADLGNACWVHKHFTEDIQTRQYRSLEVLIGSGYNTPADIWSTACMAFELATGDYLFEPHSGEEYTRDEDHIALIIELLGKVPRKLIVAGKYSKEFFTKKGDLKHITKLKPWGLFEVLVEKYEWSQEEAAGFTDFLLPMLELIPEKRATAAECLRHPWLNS
Sequence of CLK1 (human) (P49759 whole entry, looked up): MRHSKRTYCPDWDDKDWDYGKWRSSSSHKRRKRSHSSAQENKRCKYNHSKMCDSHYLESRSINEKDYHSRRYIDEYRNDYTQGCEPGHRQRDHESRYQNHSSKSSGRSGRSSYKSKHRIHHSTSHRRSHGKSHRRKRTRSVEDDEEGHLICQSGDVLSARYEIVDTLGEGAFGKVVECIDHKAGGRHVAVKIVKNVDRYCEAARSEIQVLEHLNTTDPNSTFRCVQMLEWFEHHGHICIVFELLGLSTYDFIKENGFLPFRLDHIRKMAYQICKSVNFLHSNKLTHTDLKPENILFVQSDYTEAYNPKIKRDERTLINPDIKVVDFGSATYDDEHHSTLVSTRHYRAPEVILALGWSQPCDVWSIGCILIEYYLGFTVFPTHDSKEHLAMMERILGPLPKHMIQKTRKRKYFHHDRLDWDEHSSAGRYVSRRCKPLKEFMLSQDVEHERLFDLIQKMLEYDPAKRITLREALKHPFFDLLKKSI
Sequence of CAMK2D (human) (Q13557 whole entry, looked up): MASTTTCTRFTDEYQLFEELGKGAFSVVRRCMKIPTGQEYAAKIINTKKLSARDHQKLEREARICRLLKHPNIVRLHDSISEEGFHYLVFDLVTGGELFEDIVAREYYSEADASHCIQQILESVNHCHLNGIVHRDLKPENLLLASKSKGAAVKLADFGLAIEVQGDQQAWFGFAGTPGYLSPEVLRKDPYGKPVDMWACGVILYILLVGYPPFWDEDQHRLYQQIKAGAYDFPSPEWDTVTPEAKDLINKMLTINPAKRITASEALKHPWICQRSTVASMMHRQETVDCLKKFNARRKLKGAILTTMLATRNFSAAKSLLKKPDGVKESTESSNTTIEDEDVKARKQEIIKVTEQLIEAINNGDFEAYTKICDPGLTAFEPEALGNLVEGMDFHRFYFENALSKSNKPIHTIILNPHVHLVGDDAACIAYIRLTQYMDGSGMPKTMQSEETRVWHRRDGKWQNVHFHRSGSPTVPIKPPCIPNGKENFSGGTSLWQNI
Sequence of CHEK1 (human) (O14757 whole entry, looked up): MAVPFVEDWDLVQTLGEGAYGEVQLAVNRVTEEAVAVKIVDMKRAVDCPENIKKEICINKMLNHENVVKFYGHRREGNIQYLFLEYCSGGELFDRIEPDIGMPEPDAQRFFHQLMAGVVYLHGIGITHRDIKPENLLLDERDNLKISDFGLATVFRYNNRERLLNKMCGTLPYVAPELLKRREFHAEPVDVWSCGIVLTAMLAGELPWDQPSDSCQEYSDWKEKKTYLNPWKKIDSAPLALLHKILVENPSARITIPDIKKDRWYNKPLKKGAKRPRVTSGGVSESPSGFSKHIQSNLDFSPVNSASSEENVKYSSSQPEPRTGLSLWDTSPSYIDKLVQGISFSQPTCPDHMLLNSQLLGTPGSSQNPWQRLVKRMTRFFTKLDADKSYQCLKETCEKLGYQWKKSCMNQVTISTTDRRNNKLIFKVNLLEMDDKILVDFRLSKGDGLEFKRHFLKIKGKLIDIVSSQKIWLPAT
Sequence of CSNK2A1 (human) (P68400 whole entry, looked up): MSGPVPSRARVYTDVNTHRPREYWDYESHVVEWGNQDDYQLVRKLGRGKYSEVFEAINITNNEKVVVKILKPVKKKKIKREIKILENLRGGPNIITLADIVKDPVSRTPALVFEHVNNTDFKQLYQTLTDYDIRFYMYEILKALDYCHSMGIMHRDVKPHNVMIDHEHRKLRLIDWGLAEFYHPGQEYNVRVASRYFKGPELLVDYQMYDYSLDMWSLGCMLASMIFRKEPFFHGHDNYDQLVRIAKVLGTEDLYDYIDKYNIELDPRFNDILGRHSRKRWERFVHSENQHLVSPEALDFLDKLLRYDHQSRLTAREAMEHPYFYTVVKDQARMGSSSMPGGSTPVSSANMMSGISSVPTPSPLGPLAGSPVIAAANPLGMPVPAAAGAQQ
Sequence of ACVR1B (human) (P36896 whole entry, looked up): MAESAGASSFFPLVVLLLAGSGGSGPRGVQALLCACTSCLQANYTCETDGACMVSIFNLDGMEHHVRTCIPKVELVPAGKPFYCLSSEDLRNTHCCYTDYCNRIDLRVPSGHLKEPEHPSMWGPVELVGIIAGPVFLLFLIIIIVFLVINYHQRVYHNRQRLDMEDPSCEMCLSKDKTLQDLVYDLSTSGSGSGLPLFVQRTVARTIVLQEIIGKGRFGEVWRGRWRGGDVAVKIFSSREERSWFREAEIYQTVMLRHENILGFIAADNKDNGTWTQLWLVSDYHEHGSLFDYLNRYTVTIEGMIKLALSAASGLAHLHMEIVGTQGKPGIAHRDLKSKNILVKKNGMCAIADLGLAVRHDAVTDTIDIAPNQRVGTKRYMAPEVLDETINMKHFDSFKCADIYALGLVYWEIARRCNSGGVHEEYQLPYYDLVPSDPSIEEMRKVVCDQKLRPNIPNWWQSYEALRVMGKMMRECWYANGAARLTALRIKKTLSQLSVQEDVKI
Sequence of CAMK2B (human) (Q13554 whole entry, looked up): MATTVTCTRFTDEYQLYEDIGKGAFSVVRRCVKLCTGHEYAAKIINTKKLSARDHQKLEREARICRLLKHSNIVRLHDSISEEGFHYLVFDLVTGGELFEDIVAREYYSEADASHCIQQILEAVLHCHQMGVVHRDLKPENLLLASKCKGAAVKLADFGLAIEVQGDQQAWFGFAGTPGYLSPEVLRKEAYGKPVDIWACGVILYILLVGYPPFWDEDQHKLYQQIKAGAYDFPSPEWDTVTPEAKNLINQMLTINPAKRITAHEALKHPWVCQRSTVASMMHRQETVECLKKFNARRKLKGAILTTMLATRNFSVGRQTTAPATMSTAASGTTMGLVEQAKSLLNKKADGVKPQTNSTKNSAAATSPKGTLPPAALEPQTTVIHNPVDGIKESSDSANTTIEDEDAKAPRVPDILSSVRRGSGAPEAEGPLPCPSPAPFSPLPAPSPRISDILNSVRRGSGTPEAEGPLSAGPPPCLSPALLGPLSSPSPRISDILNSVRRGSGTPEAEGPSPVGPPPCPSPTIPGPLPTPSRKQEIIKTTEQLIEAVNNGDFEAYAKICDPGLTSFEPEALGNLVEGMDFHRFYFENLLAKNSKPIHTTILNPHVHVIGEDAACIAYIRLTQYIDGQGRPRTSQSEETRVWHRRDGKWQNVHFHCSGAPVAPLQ
Sequence of MAP3K14 (human) (Q99558 whole entry, looked up): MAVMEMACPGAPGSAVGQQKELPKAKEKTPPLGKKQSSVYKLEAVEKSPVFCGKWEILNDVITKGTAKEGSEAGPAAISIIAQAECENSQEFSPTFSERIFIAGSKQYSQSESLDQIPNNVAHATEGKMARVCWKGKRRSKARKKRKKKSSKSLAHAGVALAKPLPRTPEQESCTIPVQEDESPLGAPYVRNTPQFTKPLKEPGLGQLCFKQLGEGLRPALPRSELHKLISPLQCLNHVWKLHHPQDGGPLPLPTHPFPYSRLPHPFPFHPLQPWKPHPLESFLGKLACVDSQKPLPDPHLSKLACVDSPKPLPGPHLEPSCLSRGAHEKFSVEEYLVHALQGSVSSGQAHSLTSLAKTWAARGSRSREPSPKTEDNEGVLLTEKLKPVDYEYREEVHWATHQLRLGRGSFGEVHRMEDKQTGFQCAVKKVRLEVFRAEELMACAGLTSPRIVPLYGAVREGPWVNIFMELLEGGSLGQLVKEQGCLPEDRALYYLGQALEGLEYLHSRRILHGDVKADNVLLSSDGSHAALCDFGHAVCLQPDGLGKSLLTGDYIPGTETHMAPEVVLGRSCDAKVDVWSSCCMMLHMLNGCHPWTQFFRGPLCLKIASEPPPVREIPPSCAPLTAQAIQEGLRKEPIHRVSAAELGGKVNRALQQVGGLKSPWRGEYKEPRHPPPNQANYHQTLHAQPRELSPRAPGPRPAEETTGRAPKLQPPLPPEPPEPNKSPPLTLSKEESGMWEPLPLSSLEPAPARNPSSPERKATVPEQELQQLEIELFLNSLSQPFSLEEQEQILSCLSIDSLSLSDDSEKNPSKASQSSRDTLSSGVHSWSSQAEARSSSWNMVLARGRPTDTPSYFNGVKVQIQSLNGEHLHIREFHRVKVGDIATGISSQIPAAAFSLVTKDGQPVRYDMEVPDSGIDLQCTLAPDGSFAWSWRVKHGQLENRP
Sequence of MAPK14 (human) (Q16539 whole entry, looked up): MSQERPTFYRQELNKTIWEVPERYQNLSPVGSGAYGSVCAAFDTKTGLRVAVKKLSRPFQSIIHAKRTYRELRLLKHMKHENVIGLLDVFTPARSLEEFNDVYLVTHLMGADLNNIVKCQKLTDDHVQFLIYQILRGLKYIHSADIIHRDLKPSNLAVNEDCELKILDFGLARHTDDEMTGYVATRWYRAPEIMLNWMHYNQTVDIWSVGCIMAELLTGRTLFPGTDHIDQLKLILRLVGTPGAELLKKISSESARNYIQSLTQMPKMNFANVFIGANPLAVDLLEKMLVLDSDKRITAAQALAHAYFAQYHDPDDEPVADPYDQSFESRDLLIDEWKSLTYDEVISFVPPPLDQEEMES

Work on `O=C1C(Cl)=C(N2C(=O)CCC2=O)C(=O)c2ccccc21` yielded a residual activity (ROCK1 (human)) of 106%, a residual activity (LCK (human)) of 106% and a residual activity (CAMK2B (human)) of 106%. The residual activity (MAPKAPK2 (human)) was 105%, the residual activity [1] was 107% and the residual activity (ERBB2 (human)) was 95.4%. For the same compound, the residual activity (TXK (human)) was 95.5%, the residual activity (EPHB4 (human)) was 98.7% and the residual activity (ACVR1B (human)) was 106%. For the same compound, the residual activity (PDGFRB (human)) was 103%, the residual activity (CSNK2A1 (human)) was 99.3% and the residual activity (EGFR (human)) was 98.4%. For the same compound, the residual activity (LIMK1 (human)) was 92.5%, the residual activity (EPHA5 (human)) was 113% and the residual activity (AURKA (human)) was 105%. For the same compound, the residual activity (FRK (human)) was 103%, the residual activity (ABL1 (human)) was 103% and the residual activity (KIT (human)) was 84.7%. The residual activity (MAPK14 (human)) was 88.1%, the residual activity (AURKC (human)) was 97.9% and the residual activity (CLK1 (human)) was 103%. The residual activity (TTK (human)) was 108%, the residual activity (RET (human)) was 98% and the residual activity (JAK2 JH1 JH2 (human)) was 104%. The residual activity (DAPK2 (human)) was 133%, the residual activity (SRPK1 (human)) was 103% and the residual activity (NEK2 (human)) was 88.6%. For the same compound, the residual activity (MKNK2 (human)) was 84.5%, the residual activity (DYRK1A (human)) was 99.1% and the residual activity (EPHA4 (human)) was 101%. The residual activity (CAMK2D (human)) was 109%, the residual activity (MAP3K14 (human)) was 102% and the residual activity (CDK2 CCNE1 (human)) was 90.3%. It also gave a residual activity (CAMKK2 (human)) of 86.1%, a residual activity (CHEK1 (human)) of 111% and a residual activity (FGFR2 (human)) of 102%. The residual activity (OXSR1 (human)) was 108%, the residual activity (PAK2 (human)) was 104% and the residual activity (PLK1 (human)) was 97.6%. The residual activity (PASK (human)) was 103% and the residual activity (MAP4K2 (human)) was 89.6%.

In the case of `CC(C)(C)c1cc(C=C(C#N)C#N)cc(Br)c1O`, the residual activity (ROCK1 (human)) is reported as 82.9%, the residual activity (LCK (human)) is reported as 87.8% and the residual activity (CAMK2B (human)) is reported as 99.3%. It also gave a residual activity (MAPKAPK2 (human)) of 92.3%, a residual activity [1] of 107% and a residual activity (ERBB2 (human)) of 95.7%. For the same compound, the residual activity (TXK (human)) was 108%, the residual activity (ACVR1B (human)) was 108% and the residual activity (PDGFRB (human)) was 104%. It also gave a residual activity (CSNK2A1 (human)) of 99.3%, a residual activity (EGFR (human)) of 106% and a residual activity (LIMK1 (human)) of 98.5%. It also gave a residual activity (EPHA5 (human)) of 106%, a residual activity (AURKA (human)) of 89.8% and a residual activity (FRK (human)) of 99.3%. The residual activity (AXL (human)) was 103%, the residual activity (ABL1 (human)) was 59.8% and the residual activity (KIT (human)) was 97.9%. It also gave a residual activity (MAPK14 (human)) of 98.3%, a residual activity (AURKC (human)) of 87.6% and a residual activity (CLK1 (human)) of 112%. The residual activity (TTK (human)) was 101%, the residual activity (RET (human)) was 98.2% and the residual activity (JAK2 JH1 JH2 (human)) was 107%. It also gave a residual activity (DAPK2 (human)) of 108%, a residual activity (SRPK1 (human)) of 101% and a residual activity (NEK2 (human)) of 96%. It also gave a residual activity (MKNK2 (human)) of 100%, a residual activity (DYRK1A (human)) of 95.4% and a residual activity (EPHA4 (human)) of 94.7%. The residual activity (CAMK2D (human)) was 96%, the residual activity (MAP3K14 (human)) was 97.3% and the residual activity (CDK2 CCNE1 (human)) was 77.6%. For the same compound, the residual activity (CAMKK2 (human)) was 92.5%, the residual activity (CHEK1 (human)) was 100% and the residual activity (FGFR2 (human)) was 96.4%. The residual activity (OXSR1 (human)) was 98%, the residual activity (PAK2 (human)) was 96.5% and the residual activity (PLK1 (human)) was 92.3%. For the same compound, the residual activity (PASK (human)) was 96.7% and the residual activity (MAP4K2 (human)) was 113%.

Work on `COc1cc(Nc2c(C#N)cnc3cc(OCCCN4CCN(C)CC4)c(OC)cc23)c(Cl)cc1Cl` yielded a residual activity (ROCK1 (human)) of 105%, a residual activity (LCK (human)) of 1.88% and a residual activity (CAMK2B (human)) of 86.2%. For the same compound, the residual activity (MAPKAPK2 (human)) was 94.7%, the residual activity [1] was 99% and the residual activity (ERBB2 (human)) was 32.9%. The residual activity (TXK (human)) was 27.5%, the residual activity (EPHB4 (human)) was 12.5% and the residual activity (ACVR1B (human)) was 105%. For the same compound, the residual activity (PDGFRB (human)) was 74.8%, the residual activity (CSNK2A1 (human)) was 116% and the residual activity (EGFR (human)) was 3.84%. It also gave a residual activity (LIMK1 (human)) of 96.4%, a residual activity (EPHA5 (human)) of 37.1% and a residual activity (AURKA (human)) of 86%. It also gave a residual activity (FRK (human)) of 29.2%, a residual activity (AXL (human)) of 37.6% and a residual activity (KIT (human)) of 93.6%. The residual activity (MAPK14 (human)) was 88.6%, the residual activity (AURKC (human)) was 82.1% and the residual activity (CLK1 (human)) was 81%. The residual activity (TTK (human)) was 110%, the residual activity (RET (human)) was 18.9% and the residual activity (JAK2 JH1 JH2 (human)) was 97.4%. It also gave a residual activity (DAPK2 (human)) of 82.9%, a residual activity (SRPK1 (human)) of 98.5% and a residual activity (NEK2 (human)) of 8.56%. It also gave a residual activity (MKNK2 (human)) of 98.7%, a residual activity (DYRK1A (human)) of 99.4% and a residual activity (EPHA4 (human)) of 27%. It also gave a residual activity (CAMK2D (human)) of 94.6%, a residual activity (MAP3K14 (human)) of 129% and a residual activity (CDK2 CCNE1 (human)) of 98.3%. The residual activity (CAMKK2 (human)) was 85.1%, the residual activity (CHEK1 (human)) was 38.9% and the residual activity (FGFR2 (human)) was 58.1%. For the same compound, the residual activity (OXSR1 (human)) was 100%, the residual activity (PAK2 (human)) was 69.4% and the residual activity (PLK1 (human)) was 93.8%. It also gave a residual activity (PASK (human)) of 109% and a residual activity (MAP4K2 (human)) of 3.16%.
